# Experiments:
# HL-60(TB) = experiment: Growth inhibition of human HL-60(TB) cells incubated for 48 hrs by sulforhodamine B assay; type: functional, cell-based; details: HL-60, 48 h
# MOLT-4 = experiment: Growth inhibition of human MOLT4 cells incubated for 48 hrs by sulforhodamine B assay; type: functional, cell-based; details: MOLT-4, 48 h
# UACC-257 = experiment: Growth inhibition of human UACC257 cells assessed as cell growth at 1 uM incubated for 48 hrs by sulforhodamine B assay relative to control; type: functional; details: UACC-257, 48 h, read-out: Activity
# RXF 393 = experiment: Growth inhibition of human RXF393 cells assessed as cell growth at 1 uM incubated for 48 hrs by sulforhodamine B assay relative to control; type: functional; details: RXF 393, 48 h, read-out: Activity
# NCI-H23 = experiment: Growth inhibition of human NCI-H23 cells assessed as cell growth at 0.1 uM incubated for 48 hrs by sulforhodamine B assay relative to control; type: functional; details: NCI-H23, 48 h, read-out: Activity
# SF-268 [1] = experiment: Growth inhibition of human SF268 cells incubated for 48 hrs by sulforhodamine B assay; type: functional, cell-based; details: SF-268, 48 h
# SK-OV-3 = experiment: Growth inhibition of human SKOV3 cells assessed as cell growth at 1 uM incubated for 48 hrs by sulforhodamine B assay relative to control; type: functional; details: SK-OV-3, 48 h, read-out: Activity
# SK-MEL-2 [2] = experiment: Growth inhibition of human SK-MEL-2 cells incubated for 48 hrs by sulforhodamine B assay; type: functional, cell-based; details: SK-MEL-2, 48 h
# SNB-19 = experiment: Growth inhibition of human SNB19 cells assessed as cell growth at 100 uM incubated for 48 hrs by sulforhodamine B assay relative to control; type: functional; details: SNB-19, 48 h, read-out: Activity
# Hs-578T [3] = experiment: Growth inhibition of human Hs578T cells assessed as cell growth at 100 uM incubated for 48 hrs by sulforhodamine B assay relative to control; type: functional; details: read-out: Activity
# Hs-578T [4] = experiment: Growth inhibition of human Hs578T cells assessed as cell growth at 0.01 uM incubated for 48 hrs by sulforhodamine B assay relative to control; type: functional; details: read-out: Activity
# SNB-75 = experiment: Growth inhibition of human SNB75 cells assessed as cell growth at 0.01 uM incubated for 48 hrs by sulforhodamine B assay relative to control; type: functional; details: SNB-75, 48 h, read-out: Activity
# OVCAR-8 = experiment: Growth inhibition of human OVCAR8 cells assessed as cell growth at 1 uM incubated for 48 hrs by sulforhodamine B assay relative to control; type: functional; details: OVCAR-8, 48 h, read-out: Activity
# NCI-H226 = experiment: Growth inhibition of human NCI-H226 cells incubated for 48 hrs by sulforhodamine B assay; type: functional, cell-based; details: NCI-H226, 48 h
# HT-29 = experiment: Growth inhibition of human HT-29 cells incubated for 48 hrs by sulforhodamine B assay; type: functional, cell-based; details: HT-29, 48 h
# SK-MEL-2 [5] = experiment: Growth inhibition of human SK-MEL-2 cells assessed as cell growth at 10 uM incubated for 48 hrs by sulforhodamine B assay relative to control; type: functional; details: SK-MEL-2, 48 h, read-out: Activity
# SF-268 [6] = experiment: Growth inhibition of human SF268 cells assessed as cell growth at 1 uM incubated for 48 hrs by sulforhodamine B assay relative to control; type: functional; details: SF-268, 48 h, read-out: Activity
# RPMI-8226 = experiment: Growth inhibition of human RPMI8226 cells assessed as cell growth at 1 uM incubated for 48 hrs by sulforhodamine B assay relative to control; type: functional; details: RPMI-8226, 48 h, read-out: Activity
# Hs-578T [7] = experiment: Growth inhibition of human Hs578T cells incubated for 48 hrs by sulforhodamine B assay; type: functional, cell-based
# U-251 = experiment: Growth inhibition of human U251 cells assessed as cell growth at 0.01 uM incubated for 48 hrs by sulforhodamine B assay relative to control; type: functional; details: U-251, 48 h, read-out: Activity
# A549 [8] = experiment: Growth inhibition of human A549/ATCC cells assessed as cell growth at 0.1 uM incubated for 48 hrs by sulforhodamine B assay relative to control; type: functional; details: A549, 48 h, read-out: Activity
# MDA-MB-435 = experiment: Growth inhibition of human MDA-MB-435 cells incubated for 48 hrs by sulforhodamine B assay; type: functional, cell-based; details: MDA-MB-435, 48 h
# COLO 205 = experiment: Growth inhibition of human COLO205 cells assessed as cell growth at 0.01 uM incubated for 48 hrs by sulforhodamine B assay relative to control; type: functional; details: COLO 205, 48 h, read-out: Activity
# A498 = experiment: Growth inhibition of human A498 cells assessed as cell growth at 1 uM incubated for 48 hrs by sulforhodamine B assay relative to control; type: functional; details: A498, 48 h, read-out: Activity
# CCRF-CEM = experiment: Growth inhibition of human CCRF-CEM cells assessed as cell growth at 1 uM incubated for 48 hrs by sulforhodamine B assay relative to control; type: functional; details: read-out: Activity
# A549 [9] = experiment: Growth inhibition of human A549/ATCC cells assessed as cell growth at 100 uM incubated for 48 hrs by sulforhodamine B assay relative to control; type: functional; details: A549, 48 h, read-out: Activity
# HOP-62 = experiment: Growth inhibition of human HOP62 cells assessed as cell growth at 1 uM incubated for 48 hrs by sulforhodamine B assay relative to control; type: functional; details: HOP-62, 48 h, read-out: Activity
# K562 = experiment: Growth inhibition of human K562 cells assessed as cell growth at 0.1 uM incubated for 48 hrs by sulforhodamine B assay relative to control; type: functional; details: K562, 48 h, read-out: Activity
# [10] = read-out: LC50 (the source's name)
# [11] = read-out: pLC50 (the source's name) (converted)
smiles,measurement,setting,value
COc1cc(Cl)cc(-c2nn(-c3cccc(NC(=O)c4cccc(C(F)(F)F)c4)c3)cc2-c2ccncc2)c1,GI50,HL-60(TB); read-out: GI50,4.5 µM
same,LC50,HL-60(TB); read-out: LC50,> 100 µM
same,TGI,HL-60(TB); read-out: TGI,> 100 µM
same,GI50,HL-60(TB); read-out: pGI50 (converted),45.7 µM
same,LC50,HL-60(TB); read-out: pLC50 (converted),> 100 µM
same,TGI,HL-60(TB); read-out: pTGI (converted),> 100 µM
same,GI50,MOLT-4; read-out: GI50,2.73 µM
same,CC50,MOLT-4; [10],> 100 µM
same,TGI,MOLT-4; read-out: TGI,> 100 µM
same,GI50,MOLT-4; read-out: pGI50 (converted),2.75 µM
same,CC50,MOLT-4; [11],> 100 µM
same,TGI,MOLT-4; read-out: pTGI (converted),> 100 µM
same,growth at 1 µM,UACC-257,92%
same,growth at 1 µM,RXF 393,53%
same,growth at 0.1 µM,NCI-H23,97%
same,GI50,SF-268 [1]; read-out: GI50,> 100 µM
same,CC50,SF-268 [1]; [10],> 100 µM
same,TGI,SF-268 [1]; read-out: TGI,> 100 µM
same,GI50,SF-268 [1]; read-out: pGI50 (converted),> 100 µM
same,CC50,SF-268 [1]; [11],> 100 µM
same,TGI,SF-268 [1]; read-out: pTGI (converted),> 100 µM
same,growth at 1 µM,SK-OV-3,99%
same,GI50,SK-MEL-2 [2]; read-out: GI50,0.78 µM
same,CC50,SK-MEL-2 [2]; [10],> 100 µM
same,TGI,SK-MEL-2 [2]; read-out: TGI,> 100 µM
same,GI50,SK-MEL-2 [2]; read-out: pGI50 (converted),6.76 µM
same,CC50,SK-MEL-2 [2]; [11],> 100 µM
same,TGI,SK-MEL-2 [2]; read-out: pTGI (converted),> 100 µM
same,growth at 100 µM,SNB-19,72%
same,growth at 100 µM,Hs-578T [3],53%
same,growth at 0.01 µM,Hs-578T [4],97%
same,growth at 0.01 µM,SNB-75,90%
same,growth at 1 µM,OVCAR-8,93%
same,GI50,NCI-H226; read-out: GI50,> 100 µM
same,LC50,NCI-H226; read-out: LC50,> 100 µM
same,TGI,NCI-H226; read-out: TGI,> 100 µM
same,GI50,NCI-H226; read-out: pGI50 (converted),> 100 µM
same,LC50,NCI-H226; read-out: pLC50 (converted),> 100 µM
same,TGI,NCI-H226; read-out: pTGI (converted),> 100 µM
same,GI50,HT-29; read-out: GI50,3.37 µM
same,CC50,HT-29; [10],> 100 µM
same,TGI,HT-29; read-out: TGI,> 100 µM
same,GI50,HT-29; read-out: pGI50 (converted),3.39 µM
same,CC50,HT-29; [11],> 100 µM
same,TGI,HT-29; read-out: pTGI (converted),> 100 µM
same,growth at 10 µM,SK-MEL-2 [5],56.4%
same,growth at 1 µM,SF-268 [6],100%
same,growth at 1 µM,RPMI-8226,79%
same,GI50,Hs-578T [7]; read-out: GI50,> 100 µM
same,CC50,Hs-578T [7]; [10],> 100 µM
same,TGI,Hs-578T [7]; read-out: TGI,> 100 µM
same,GI50,Hs-578T [7]; read-out: pGI50 (converted),> 100 µM
same,CC50,Hs-578T [7]; [11],> 100 µM
same,TGI,Hs-578T [7]; read-out: pTGI (converted),> 100 µM
same,growth at 0.01 µM,U-251,94%
same,growth at 0.1 µM,A549 [8],93%
same,GI50,MDA-MB-435; read-out: GI50,> 100 µM
same,LC50,MDA-MB-435; read-out: LC50,> 100 µM
same,TGI,MDA-MB-435; read-out: TGI,> 100 µM
same,GI50,MDA-MB-435; read-out: pGI50 (converted),> 100 µM
same,LC50,MDA-MB-435; read-out: pLC50 (converted),> 100 µM
same,TGI,MDA-MB-435; read-out: pTGI (converted),> 100 µM
same,growth at 0.01 µM,COLO 205,108%
same,growth at 1 µM,A498,51%
same,growth at 1 µM,CCRF-CEM,53%
same,growth at 100 µM,A549 [9],30%
same,growth at 1 µM,HOP-62,101%
same,growth at 0.1 µM,K562,112%

# — ChEMBL document CHEMBL4308841, “Synthesis, in vitro antiproliferative activity, and kinase inhibitory effects of pyrazole-containing diarylureas and diarylamides” (Eur J Med Chem, 2018)
